How the values were obtained:
Format in all cases: cell-based, human
SNU761-TM4SF5 = test: Western blotting of SLAMF7 expression, TM4SF5-expressing SNU761 cells; details: chloroquine 10 µM, 24 hours (FIG. 15d)
Experimental: Cell extracts were obtained from cells grown to a density of 70-80% without any treatment, or from cells treated with vehicle DMSO or drugs at the given concentrations for 24 hours. For the extract of hepatocytes or liver cancer cells, a lysis buffer (150 mM NaCl, 1% NP-40, 50 mM Tris-HCl, 0.25% sodium deoxycholate, pH 7.4) including a protease inhibitor cocktail (GenDEPOT) was used. In addition, after washing animal liver tissue twice with PBS, SDS, Na3VO4, and protease inhibitor cocktails (GenDEPOT) were added to a lysis buffer [50 mM Tris-HCl, pH 7.4, 1% NP40, 0.25% sodium deoxycholate, 150 mM NaCl, 1 mM EDTA (based on 500 ml)], followed by treatment at 4°C for 15 minutes. After centrifugation at 13,000 rpm at 4°C for 30 minutes, only the supernatant was transferred to a new microcentrifuge tube. After quantification using BCA reagent (Thermo Scientific), a 4 × sample buffer [100% glycerol 4 ml, Tris-HCl, pH 6.8, 2.4 ml, SDS 0.8 g, Bromophenol blue 4 mg, betamercaptoethanol 0.4 ml, H2O 3.1 ml (based on 10 ml)] was added, followed by boiling at 100°C for 5 minutes. After performing SDS-PAGE electrophoresis with the above samples and transferring them to Nitrocellulose Membranes Protran™ nitrocellulose membranes (Whatman), pre-treatment was performed with 5% skim milk for 1 hour. After pre-treatment, primary antibodies of p-FAK(Y861) (SC-16663), p-FAK(Y577) (SC-16665), c-Src (SC-8056), STAT3 (SC-8019), p-AKT 1/2/3(S473) (SC-7985), STATS (SC-835), Laminin γ2 (SC-393225), COL1A1 (SC-28657), CCL5(RANTES) (SC-514019) CCL20(MIP-3α) (SC-517441), SIRT1 (SC-74465), ChREBP (SC-515922), SREBP1 (SC-366513), DGAT1 (SC-271934), DGAT2 (SC-293211), MICA/B (SC-137242), SLAMF7 (SC-390840), α-tublin (SC-5286), β-actin (SC-47778), FUCA (SC-365496) (the above from Santa Cruz Biotech, USA), p-FAK(Y397) (cat # 611723), FAK (cat # 610088), p27 (cat # 610242) (the above from BD Transduction, USA), p-FAK(Y925) (#3284) p-c-Src(Y416) (#2101), p-STAT3(Y705) (#9145), p70S6K1 (#9202), p-p70S6K1(T389) (#9205), p-STAT5(Y694) (#9314), ACC (#3676), FASN (#3189), CPT1A (#12252), p-ACC(S79) (#11818), HA (#3724), PD-L1 (#13684), PD-1 (#86163), p-ERK1/2(T202/Y204) (#9101s), ERK1/2 (#9102s) (the above from Cell Signaling Tech., USA), pS10p27(S10) (ab62364), human SLAMF6 (ab224201), TIGIT (ab233404), CD34 (ab81289) (the above from Abcam, UK), mouse SLAMF6 (PA5-87823), NKG2D (PA5-102038) (the above from Thermofisher, USA), α-SMA (Sigma Aldrich, A5228), CCL2 (Invitrogen, MA5-17040), and CD155(PVR) (Biolegend, 337601), HA (Biolegend, USA), Strep-HRP(horse-radish peroxidase), StrepMAB-HRP (IBA, USA), AFP (FineTest, FNab00203) were reacted at 4°C for 15 hours. The next day, secondary antibodies were reacted, and development was performed on X-ray film using ECL (Pierce, USA). […]
After 24 hours, vehicle DMSO, drug ST-1-025, or ST-5-002 was treated at the given concentrations. […] (f) After treating NK92-EV or NK92-TM4SF5 cells with DMSO or drugs ST-2-001 (1 nM), ST-3-005 (10 nM or 1 µM), ST-5-001, or ST-5-002 (100 nM or 1 µM) for 24 hours, the expression of SLAMF7 expressed on the cell surface was analyzed through immunostaining using flow cytometry. The expression level of SLAMF7 was confirmed by adding a SLAMF7 antibody to bind with SLAMF7 and then measuring the fluorescence linked to the SLAMF7 antibody using flow cytometry. […]

[1] = system: TM4SF5-expressing cells (SNU449T7); test: 3D sphere growth/proliferation
Experimental: TM4SF5-non-expressing cells (SNU449Cp) and TM4SF5-expressing cells (SNU449T7) of the same number (200 cells/well or 1000 cells/well) were added per well into Costar Ultra-Low Attachment Multiple Well Plates (CORNING), and were then treated with vehicle (DMSO) or drugs at various concentrations and cultured in a cell incubator under conditions of 37°C and 5% CO2. After repeatedly treating with the same concentrations of drugs every few days at regular intervals as indicated from the date of cell culture, the proliferation of the cells (spheres) was observed and photographed using an optical microscope on the last day of observation.
The drugs treated were the positive control drug TSAHC or the ST-1-025 isoxazole compound at the given concentrations. From the time of starting culture (0 day), (FIG. 3a) in the case of 2D culture, the number of cells was measured after treating with the drug every 24 hours, or (FIG. 3b) in a 3D environment, the proliferation of cells (spheres) was observed and photographed with an optical microscope on the 5th and 7th days after a single drug treatment at the start of culture. […]

[2] = system: TM4SF5-expressing cells (SNU449T7); test: Western blotting for signaling factors whose phosphorylation increases in a TM4SF5-expression dependent manner; details: for phosphorylation of FAK, c-Src, STAT3, p27, S6K1, AKT, and STAT5: 5 µM, 24 hours (FIG. 9a-b); for phosphorylation of FAK, STAT3, c-Src, S6K1, Akt, and p27: given concentrations
Experimental: (§1) Cell extracts were obtained from cells grown to a density of 70-80% without any treatment, or from cells treated with vehicle DMSO or drugs at the given concentrations for 24 hours. For the extract of hepatocytes or liver cancer cells, a lysis buffer (150 mM NaCl, 1% NP-40, 50 mM Tris-HCl, 0.25% sodium deoxycholate, pH 7.4) including a protease inhibitor cocktail (GenDEPOT) was used. In addition, after washing animal liver tissue twice with PBS, SDS, Na3VO4, and protease inhibitor cocktails (GenDEPOT) were added to a lysis buffer [50 mM Tris-HCl, pH 7.4, 1% NP40, 0.25% sodium deoxycholate, 150 mM NaCl, 1 mM EDTA (based on 500 ml)], followed by treatment at 4°C for 15 minutes. After centrifugation at 13,000 rpm at 4°C for 30 minutes, only the supernatant was transferred to a new microcentrifuge tube. After quantification using BCA reagent (Thermo Scientific), a 4 × sample buffer [100% glycerol 4 ml, Tris-HCl, pH 6.8, 2.4 ml, SDS 0.8 g, Bromophenol blue 4 mg, betamercaptoethanol 0.4 ml, H2O 3.1 ml (based on 10 ml)] was added, followed by boiling at 100°C for 5 minutes. After performing SDS-PAGE electrophoresis with the above samples and transferring them to Nitrocellulose Membranes Protran™ nitrocellulose membranes (Whatman), pre-treatment was performed with 5% skim milk for 1 hour. After pre-treatment, primary antibodies of p-FAK(Y861) (SC-16663), p-FAK(Y577) (SC-16665), c-Src (SC-8056), STAT3 (SC-8019), p-AKT 1/2/3(S473) (SC-7985), STATS (SC-835), Laminin γ2 (SC-393225), COL1A1 (SC-28657), CCL5(RANTES) (SC-514019) CCL20(MIP-3α) (SC-517441), SIRT1 (SC-74465), ChREBP (SC-515922), SREBP1 (SC-366513), DGAT1 (SC-271934), DGAT2 (SC-293211), MICA/B (SC-137242), SLAMF7 (SC-390840), α-tublin (SC-5286), β-actin (SC-47778), FUCA (SC-365496) (the above from Santa Cruz Biotech, USA), p-FAK(Y397) (cat # 611723), FAK (cat # 610088), p27 (cat # 610242) (the above from BD Transduction, USA), p-FAK(Y925) (#3284) p-c-Src(Y416) (#2101), p-STAT3(Y705) (#9145), p70S6K1 (#9202), p-p70S6K1(T389) (#9205), p-STAT5(Y694) (#9314), ACC (#3676), FASN (#3189), CPT1A (#12252), p-ACC(S79) (#11818), HA (#3724), PD-L1 (#13684), PD-1 (#86163), p-ERK1/2(T202/Y204) (#9101s), ERK1/2 (#9102s) (the above from Cell Signaling Tech., USA), pS10p27(S10) (ab62364), human SLAMF6 (ab224201), TIGIT (ab233404), CD34 (ab81289) (the above from Abcam, UK), mouse SLAMF6 (PA5-87823), NKG2D (PA5-102038) (the above from Thermofisher, USA), α-SMA (Sigma Aldrich, A5228), CCL2 (Invitrogen, MA5-17040), and CD155(PVR) (Biolegend, 337601), HA (Biolegend, USA), Strep-HRP(horse-radish peroxidase), StrepMAB-HRP (IBA, USA), AFP (FineTest, FNab00203) were reacted at 4°C for 15 hours. The next day, secondary antibodies were reacted, and development was performed on X-ray film using ECL (Pierce, USA). Anti-TM4SF5C-ter (epitope region of RKKQDTPH^197) and anti-TM4SF5EC2 (CLMNGEWGYHFEDTAGA^130) were custom-made at a professional antibody production company (Pro-Sci, Poway, CA, USA).
Cell extracts were obtained before and after treating TM4SF5-non-expressing cells (SNU449Cp) and TM4SF5-expressing cells (SNU449T7) with ST-1-024 or ST-1-025 drugs at the given concentrations for 24 hours, and Western blotting was performed for signaling factors whose phosphorylation and activity increase in a TM4SF5-expression dependent manner.
(a) Cell extracts were obtained after treating TM4SF5-non-expressing cells (SNU449Cp) and TM4SF5-expressing cells (SNU449T7) with vehicle (DMSO), TSAHC, or isoxazole compounds ST-2-001, ST-2-002, ST-2-003, ST-2-004, ST-2-005, ST-2-006, ST-2-007, ST-2-008, ST-2-009, ST-2-010, or ST-2-011 at a dose of 5 µM (for 24 hours). Using these, Western blotting was performed for signaling factors whose phosphorylation and activity increase in a TM4SF5-expression dependent manner. […]

[3] = system: TM4SF5-non-expressing cells (SNU449Cp); test: Western blotting for signaling factor phosphorylation in TM4SF5-non-expressing cells; details: 5 µM, 24 hours (FIG. 9a-b, blue-lined boxes)
Experimental: as §1
(a) Cell extracts were obtained after treating TM4SF5-non-expressing cells (SNU449Cp) and TM4SF5-expressing cells (SNU449T7) with vehicle (DMSO), ST-2-001, or an ST-2-001-based derivative drug at a concentration of 5 µM for 24 hours. (b) Cell extracts were obtained after treating SNU449Cp and SNU449T7 with DMSO, ST-2-001, ST-3-001, ST-3-006, ST-3-007, ST-3-010, or ST-3-011 at a concentration of 5 µM for 24 hours. (c) Cell extracts were obtained after treating SNU449Cp and SNU449T7 with DMSO, ST-2-001, ST-3-006, or ST-3-011 at the given concentrations for 24 hours. (a-c) Using the cell extracts obtained after the drug treatment, Western blotting was performed for signaling factors whose phosphorylation and activity increase in a TM4SF5-expression dependent manner.

[4] = 0.5 or 2.5 µM, observed 6th or 10th day (FIG. 10a, b)

| SMILES | degree of three-dimensional cell proliferation [1, 4] | phosphorylation of FAK, c-Src, STAT3, p27, S6K1, AKT, and STAT5 [2] | phosphorylation of some signaling factors [3] | other results |
| --- | --- | --- | --- | --- |
| CCN(CC)CCCC(C)Nc1ccnc2cc(Cl)ccc12 (stereo not drawn) [CQ, chloroquine, reference compound] | – | – | – | reduction in SLAMF7 expression (SNU761-TM4SF5): not clearly seen |
| CC(=O)Nc1ccc(-c2cc(-c3ccc(C(C)(C)C)cc3)on2)cc1 [ST-3-007, N-(4-(5-(4-(tert-butyl)phenyl)isoxazole-3-yl)phenyl)acetamide] | inhibited | decreased | increased | – |
| C=CC(=O)Nc1ccc(-c2cc(-c3ccc(OC)cc3)on2)cc1 [ST-3-010, N-(4-(5-(4-methoxyphenyl)isoxazole-3-yl)phenyl)acrylamide] | inhibited | decreased | increased | degree of three-dimensional cell proliferation ([1]; 0.1 or 1.0 µM, observed 10th day (FIG. 10c)): decreased; cell proliferation inhibitory effect ([1]; 0.5 or 2.5 µM (FIG. 10a, b), comparison among drugs): strong |
| Cc1ccc(S(=O)(=O)Nc2ccc(-c3cc(-c4ccc(O)cc4)no3)cc2)cc1 [ST-4-005, N-(4-(3-(4-hydroxyphenyl)isoxazole-5-yl)phenyl)-4-methylbenzenesulfonamide] | – | – | – | survival/proliferation of the spheres ([1]; given concentrations on the 0, 3, 6, and 9th days, observed 10th day (FIG. 12b-c)): inhibited; phosphorylation of FAK, STAT3, c-Src, S6K1, Akt, and p27 ([2]; 24 hours (FIG. 12a)): inhibited in many cases including STAT3, S6K1, and FAK; phosphorylation of FAK, STAT3, c-Src, S6K1, Akt, and p27 ([2]; 24 hours (FIG. 12d)): inhibited |

From patent EP4772500A1, “NOVEL ISOXAZOLE COMPOUND AS TM4SF5-SPECIFIC INHIBITOR AND USE THEREOF” (Seoul National University R&DB Foundation, priority 2023, dated 2025)
